Measured values reported in ChEMBL document CHEMBL5046281, “N-Aryl Mercaptopropionamides as Broad-Spectrum Inhibitors of Metallo-β-Lactamases” (J Med Chem, 2022).
Calls of active or inactive are those of the source. The calls are words filed in the database; no cut-off is given here.

Tests used:
[1] = system: Escherichia coli; experiment: Potentiation of imipenem-induced antibacterial activity against NDM-1 producing Escherichia coli assessed as fold change in imipenem MIC at 128 ug/ml by microdilution method; type: functional; settings: dose 128 µg/ml
[2] = system: Escherichia coli; experiment: Potentiation of imipenem-induced antibacterial activity against NDM-1 producing Escherichia coli assessed as imipenem MIC at 64 ug/ml by microdilution method (reference value: 128 ug/ml); type: functional; settings: dose 64 µg/ml
[3] = Inhibition of Escherichia coli IMP-7 using fluorocillin as substrate incubated for 30 mins by fluorescence based assay
[4] = (§1) Selectivity ratio of MIC for antibacterial activity against NDM-7 producing Escherichia coli T2239 clinical isolates to MIC for potentiation of imipenem-induced antibacterial activity against NDM-7 producing Escherichia coli T2239 clinical isolates assessed as imipenem MIC at 128 mg/l; type: functional
[5] = system: Escherichia coli; experiment: Potentiation of imipenem-induced antibacterial activity against NDM-1 producing Escherichia coli assessed as imipenem MIC at 4 ug/ml by microdilution method (reference value: 128 ug/ml); type: functional; settings: dose 4 µg/ml
[6] = system: Klebsiella pneumoniae; experiment: Antibacterial activity against imipenem-resistant NDM-1-producing Klebsiella pneumoniae T2301 at 128 mg/L measured after 24 hrs by time-kill assay; type: functional, organism-based
[7] = biological target: 72 kDa type IV collagenase (Homo sapiens, UniProt P08253); experiment: Inhibition of human MMP-2 at 100 uM relative to control
Chain of 72 kDa type IV collagenase (P08253 110-660 limits assumed): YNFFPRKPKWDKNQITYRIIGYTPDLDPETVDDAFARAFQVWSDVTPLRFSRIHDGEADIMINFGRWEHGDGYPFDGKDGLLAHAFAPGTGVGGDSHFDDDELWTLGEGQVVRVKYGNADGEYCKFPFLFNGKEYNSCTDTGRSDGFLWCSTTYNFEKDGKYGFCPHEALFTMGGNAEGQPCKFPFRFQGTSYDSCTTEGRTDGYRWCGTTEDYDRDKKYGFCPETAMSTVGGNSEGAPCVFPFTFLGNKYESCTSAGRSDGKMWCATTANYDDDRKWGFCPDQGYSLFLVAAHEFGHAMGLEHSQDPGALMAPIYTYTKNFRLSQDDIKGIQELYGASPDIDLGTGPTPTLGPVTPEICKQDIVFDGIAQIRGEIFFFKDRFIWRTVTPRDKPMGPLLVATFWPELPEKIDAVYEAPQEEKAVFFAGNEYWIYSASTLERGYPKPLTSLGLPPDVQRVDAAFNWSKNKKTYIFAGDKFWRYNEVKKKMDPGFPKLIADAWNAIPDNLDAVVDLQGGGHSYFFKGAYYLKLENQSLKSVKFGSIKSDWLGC

[8] = system: Pseudomonas aeruginosa; experiment: Potentiation of imipenem-induced antibacterial activity against VIM-1 producing Pseudomonas aeruginosa T2357 clinical isolates assessed as imipenem MIC at 128 mg/l by microdilution method; type: functional
[9] = biological target: Matrix metalloproteinase-14 (Homo sapiens, UniProt P50281); experiment: Inhibition of human MMP-14 at 100 uM relative to control
[10] = system: Pseudomonas aeruginosa; experiment: Potentiation of imipenem-induced antibacterial activity against IMP-1 producing Pseudomonas aeruginosa T2325 clinical isolates assessed as imipenem MIC at 128 mg/l by microdilution method; type: functional
[11] = system: Klebsiella pneumoniae; experiment: Synergistic antibacterial activity against NDM-1-producing Klebsiella pneumoniae T2301 clinical isolate assessed as fractional inhibitory concentration index in presence of imipenem by microdilution checkerboard assay; type: functional
[12] = Selectivity ratio of MIC for antibacterial activity against VIM-1 producing Enterobacter cloacae T2353 clinical isolates to MIC for potentiation of imipenem-induced antibacterial activity against VIM-1 producing Enterobacter cloacae T2353 clinical isolates assessed as imipenem MIC at 128 mg/l; type: functional
[13] = system: HEK293; experiment: Cytotoxicity against human HEK293 cells assessed as reduction in cell viability at 100 uM relative to control; type: toxicity, cell-based; settings: hek293, 100 µM
[14] = system: Escherichia coli; experiment: Antibacterial activity against IMP-1 expressing Escherichia coli isolates assessed as inhibition of bacterial growth by microdilution method; type: functional, organism-based
[15] = biological target: T1, Interstitial collagenase (Homo sapiens) (UniProt P03956); experiment: Inhibition of human MMP-1 at 100 uM relative to control
T1 sequence (whole entry): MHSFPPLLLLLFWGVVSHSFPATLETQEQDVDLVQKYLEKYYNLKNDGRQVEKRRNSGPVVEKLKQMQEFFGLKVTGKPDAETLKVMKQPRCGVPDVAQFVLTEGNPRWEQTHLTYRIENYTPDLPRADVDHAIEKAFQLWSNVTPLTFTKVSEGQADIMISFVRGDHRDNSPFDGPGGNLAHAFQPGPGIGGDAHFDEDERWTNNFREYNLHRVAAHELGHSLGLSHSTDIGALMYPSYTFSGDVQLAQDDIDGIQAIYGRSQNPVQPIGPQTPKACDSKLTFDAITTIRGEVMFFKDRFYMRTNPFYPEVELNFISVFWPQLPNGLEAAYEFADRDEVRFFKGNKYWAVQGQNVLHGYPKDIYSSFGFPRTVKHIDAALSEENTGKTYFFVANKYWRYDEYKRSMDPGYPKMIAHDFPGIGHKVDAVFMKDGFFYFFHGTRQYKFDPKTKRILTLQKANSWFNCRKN

[16] = biological target: T2, Matrilysin (Homo sapiens) (UniProt P09237); experiment: Inhibition of human MMP-7 at 100 uM relative to control
T2 sequence (whole entry): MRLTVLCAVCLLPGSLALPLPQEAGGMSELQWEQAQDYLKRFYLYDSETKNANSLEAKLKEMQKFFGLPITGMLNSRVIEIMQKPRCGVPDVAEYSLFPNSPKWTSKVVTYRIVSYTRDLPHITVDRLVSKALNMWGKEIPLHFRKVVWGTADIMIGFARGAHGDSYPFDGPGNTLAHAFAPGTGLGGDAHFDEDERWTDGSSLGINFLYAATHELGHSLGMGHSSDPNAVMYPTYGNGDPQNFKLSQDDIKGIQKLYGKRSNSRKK

[17] = biological target: Stromelysin-1 (Homo sapiens) (UniProt P08254); experiment: Inhibition of human MMP-3 at 100 uM relative to control
Chain of Stromelysin-1 (Homo sapiens) (P08254 100-477 limits assumed): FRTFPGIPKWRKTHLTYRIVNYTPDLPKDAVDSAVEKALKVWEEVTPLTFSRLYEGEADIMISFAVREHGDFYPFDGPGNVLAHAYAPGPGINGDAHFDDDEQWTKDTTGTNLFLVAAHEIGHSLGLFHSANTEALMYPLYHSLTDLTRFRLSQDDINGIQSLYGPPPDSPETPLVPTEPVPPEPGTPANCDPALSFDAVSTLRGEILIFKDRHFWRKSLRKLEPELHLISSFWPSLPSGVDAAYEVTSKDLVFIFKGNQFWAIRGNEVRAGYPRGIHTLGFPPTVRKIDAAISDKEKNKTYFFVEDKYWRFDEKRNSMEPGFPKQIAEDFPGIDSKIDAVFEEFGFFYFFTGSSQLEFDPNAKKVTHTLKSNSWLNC

[18] = system: Escherichia coli; experiment: Potentiation of imipenem-induced antibacterial activity against NDM-1 producing Escherichia coli assessed as imipenem MIC at 16 ug/ml by microdilution method (reference value: 128 ug/ml); type: functional; settings: dose 16 µg/ml
[19] = system: Escherichia coli; experiment: Potentiation of imipenem-induced antibacterial activity against NDM-1 producing Escherichia coli assessed as fold change in imipenem MIC at 2 ug/ml by microdilution method; type: functional; settings: dose 2 µg/ml
[20] = system: Escherichia coli; experiment: Potentiation of imipenem-induced antibacterial activity against NDM-1 producing Escherichia coli assessed as fold change in imipenem MIC at 4 ug/ml by microdilution method; type: functional; settings: dose 4 µg/ml
[21] = system: Escherichia coli; experiment: Potentiation of imipenem-induced antibacterial activity against NDM-1 producing Escherichia coli assessed as fold change in imipenem MIC at 8 ug/ml by microdilution method; type: functional; settings: dose 8 µg/ml
[22] = as §1, with “OXA-23” for “NDM-7”, “Acinetobacter baumannii T2434” for “Escherichia coli T2239”; type: functional
[23] = system: Escherichia coli; experiment: Potentiation of imipenem-induced antibacterial activity against NDM-1 producing Escherichia coli assessed as imipenem MIC at 128 ug/ml by microdilution method (reference value: 128 ug/ml); type: functional; settings: dose 128 µg/ml
[24] = Selectivity ratio of MIC for antibacterial activity against GIM-1 producing Enterobacter cloacae T2218 clinical isolates to MIC for potentiation of imipenem-induced antibacterial activity against GIM-1 producing Enterobacter cloacae T2218 clinical isolates assessed as imipenem MIC at 128 mg/l; type: functional
[25] = system: Pseudomonas aeruginosa; experiment: Antibacterial activity against VIM-2 expressing Pseudomonas aeruginosa isolates assessed as inhibition of bacterial growth by microdilution method; type: functional, organism-based
[26] = biological target: Disintegrin and metalloproteinase domain-containing protein 17 (Homo sapiens) (UniProt P78536); experiment: Inhibition of human TACE at 100 uM relative to control
Chain of Disintegrin and metalloproteinase domain-containing protein 17 (Homo sapiens) (P78536 whole entry, the tested form may be a part): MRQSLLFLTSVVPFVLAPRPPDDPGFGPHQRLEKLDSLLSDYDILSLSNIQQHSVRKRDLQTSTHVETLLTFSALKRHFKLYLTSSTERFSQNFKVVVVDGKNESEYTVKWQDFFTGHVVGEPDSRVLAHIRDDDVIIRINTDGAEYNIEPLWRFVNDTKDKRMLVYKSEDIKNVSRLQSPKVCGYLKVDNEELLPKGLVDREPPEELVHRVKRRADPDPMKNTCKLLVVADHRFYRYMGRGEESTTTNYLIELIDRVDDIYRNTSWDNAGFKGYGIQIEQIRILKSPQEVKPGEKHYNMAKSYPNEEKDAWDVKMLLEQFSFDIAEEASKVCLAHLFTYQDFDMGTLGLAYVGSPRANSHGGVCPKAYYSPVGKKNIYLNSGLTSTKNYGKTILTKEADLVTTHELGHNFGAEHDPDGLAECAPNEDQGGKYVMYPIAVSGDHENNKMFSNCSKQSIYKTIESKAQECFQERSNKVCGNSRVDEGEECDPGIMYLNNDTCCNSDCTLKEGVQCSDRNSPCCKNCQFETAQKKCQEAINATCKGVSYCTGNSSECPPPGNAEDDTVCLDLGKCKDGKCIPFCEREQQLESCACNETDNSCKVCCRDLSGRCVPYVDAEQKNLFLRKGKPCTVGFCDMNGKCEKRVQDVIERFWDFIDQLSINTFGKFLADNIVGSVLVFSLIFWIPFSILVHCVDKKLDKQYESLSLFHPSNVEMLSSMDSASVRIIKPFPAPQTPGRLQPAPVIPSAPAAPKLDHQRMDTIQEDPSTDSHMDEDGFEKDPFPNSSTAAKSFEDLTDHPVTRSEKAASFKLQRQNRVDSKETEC

[27] = system: Enterobacter cloacae; experiment: Potentiation of imipenem-induced antibacterial activity against GIM-1 producing Enterobacter cloacae T2218 clinical isolates assessed as imipenem MIC at 128 mg/l by microdilution method; type: functional

O=C(CCS)Nc1cccc(C(=O)O)c1
fold change (FC) [1]: 256 | MIC [2]: 2 µg/mL | IC50 [3]: 6.4 µM | Ratio [4]: 16 | MIC [5]: 128 µg/mL | Activity [6]: inactive | inhibition [7]: < 10% | MIC [8]: 256 µg/mL | inhibition [9]: 61% | MIC [10]: 16 µg/mL | fractional inhibitory concentration index (FICI) [11]: 0.25 | Ratio [12]: 2 | Activity [13]: < 10% | Activity [14]: inactive | inhibition [15]: < 10% | inhibition [16]: < 10% | inhibition [17]: < 10% | MIC [18]: 64 µg/mL | fold change (FC) [19]: 1 | fold change (FC) [20]: 1 | fold change (FC) [21]: 2 | Ratio [22]: 1 | MIC [23]: ≤ 0.5 µg/mL | Ratio [24]: 1 | Activity [25]: inactive | inhibition [26]: < 10% | MIC [27]: 2 µg/mL
